Experimental data from patent publication US20230091908A1, “FLUORENE DERIVATIVE, METHOD FOR PRODUCING SAME, AND APPLICATION OF SAME” (Osaka Gas Chemicals Co., Ltd., priority 2019, published 2023).

Columns and labels:
[1] = Solubility in various solvents; type: physicochemical; set-up: key to Solubility: A: Soluble; B: Some soluble, but turbid; C: Insoluble; details: for Solubility: stirred at 50° C. for 30 minutes
Experimental: The sample 0.3 g was weighed in a sample bottle, the solvent was added by 0.7 g (condition 1: solid content of 30% by mass) or 1.0 g (condition 2: solid content of 23% by mass), and each of the obtained mixed solutions was stirred at a temperature of 50° C. for 30 minutes by using a bioshaker (manufactured by TAITEC CORPORATION, “BR-43FH”). Each of the mixed solutions after stirring was evaluated according to the following criteria. The used solvents were methyl ethyl ketone (MEK), methyl isobuthyl ketone (MIBK), ethyl acetate, propylene glycol monomethyl ether acetate (PGMEA), toluene, dimethylformamide (DMF), or cyclohexanone.
B: Some soluble, but turbid

[2] = 5% mass reduction temperature (TG-DTA); type: physicochemical
Experimental: (5% Mass Reduction Temperature)
The temperature, at which the mass of the sample is reduced by 5% by mass was measured using a Thermogravimeter-Differential Thermal Analyzer (TG-DTA) (manufactured by SII NanoTechnology Inc., “TG/DTA6200”) in an atmosphere of a nitrogen gas, at a heating rate (programming rate) of 10° C./min. The sample (cured product) was prepared as follows.
That is, 3 parts by mass of Irgacure 184 (manufactured by BASF Japan Ltd.) as a photopolymerization initiator was added to 100 parts by mass of the total amount of the acrylate compound (polymerization component) shown in Table 1 or 3 weighed in a brown bottle, and the mixture was heated to 120° C. for dissolution to obtain a curable composition. An UV irradiation (500 mJ/cm^2) was repeated 4 times on the obtained curable composition to prepare the cured product.

Structure (SMILES) | Solubility ([1]; Cyclohexanone, solid content of 30% by mass) | Solubility ([1]; DMF, solid content of 30% by mass) | Solubility ([1]; Ethyl acetate, solid content of 30% by mass) | Solubility ([1]; MEK, solid content of 30% by mass) | Solubility ([1]; MIBK, solid content of 30% by mass) | Solubility ([1]; PGMEA, solid content of 23% by mass) | Solubility ([1]; PGMEA, solid content of 30% by mass) | Solubility ([1]; Toluene, solid content of 30% by mass) | Solubility in various solvents (summary in words) ([1]; summary of Table 2) | 5% mass reduction temperature ([2]; cured product of the compound (UV cured, Irgacure 184), nitrogen, 10° C./min) [°C] | melting point [°C] | 5% mass reduction temperature ([2]; compound as obtained) [°C]
C=CC(=O)OCCCC1(CCCOC(=O)C=C)c2cc(-c3ccc4ccccc4c3)ccc2-c2ccc(-c3ccc4ccccc4c3)cc21 [DNPOA, 9,9-bis(3-acryloyloxypropyl)-2,7-di(2-naphthyl)fluorene] | A | A | A | A | A | A | B | A | high solubility in various solvents | 382 | 120 | 
COC(=O)CCC1(CCC(=O)OC)c2cc(-c3ccc4ccccc4c3)ccc2-c2ccc(-c3ccc4ccccc4c3)cc21 [DNFDP-m, 9,9-bis(2-methoxycarbonylethyl)-2,7-di(2-naphthyl)fluorene] |  |  |  |  |  |  |  |  |  |  |  | 390
